In patent publication US20230250084A1, “PYRAZOLYL PYRIMIDINONE COMPOUNDS AND THE USES THEREOF” (Purdue Research Foundation, priority 2019, published 2023) one finds IC50 and inhibition data, which are given here for ten compounds.

Bounds are passed on as bounds.

One assay concerns the target AC1 (Homo sapiens, UniProt Q08828). Kind of assay: Adenylyl cyclase cAMP accumulation assay, HEK-ACA3/6 cells overexpressing human AC1. Format: cell-based. More on the design: expressed in transfected cells; host or cells: HEK-ACA3/6 cells (so in the source) overexpressing human AC1. The following applies: Table 2; 3 μM A23187 + 0.5 mM IBMX, HTRF cAMP; read-out: AC1 IC50 (μM) ± SEM. Here is the method: Cryopreserved HEK-ACA3/6 cells overexpressing human AC1, AC2, AC5, or AC8 were transferred to a 15 mL Falcon tube and gently resuspended in prewarmed Opti-MEM.50 The cells were centrifuged for 5 min at 150 g, the supernatant was discarded, and the cell pellet was resuspended in 10 mL for a second centrifugation step. Then, the cells were counted, plated in a white opaque 384-well plate, and incubated for 1 h in a 37° C. incubator supplemented with 5% CO2. The hit compounds' working solutions were prepared in prewarmed Opti-MEM, and successive serial dilutions were prepared using a Precision 2000 automated pipetting system. Dose*-response curves were generated for each hit compound using a threefold serial dilution starting at 30 μM concentration (at least 6-points per curve). Compounds were added to the assay plates and incubated for 30 min at room temperature. AC activity was selectively stimulated on each AC isoform with 3 μM A23187 (AC1 and AC8), 100 nM PMA (AC2), or a low concentration (1 μM) of the AC activator, forskolin (AC5). All stimulants of AC activity were added in combination with IBMX at a final concentration of 0.5 mM. After 1 h incubation with the stimulant at room temperature, cAMP accumulation was detected using the fluorescence-based Cisbio HTRF cAMP detection kit. […] Percent inhibition at the highest concentration was used to determine max % inhibition (Max AC8% Inhibition). […]

The target in another assay is AC8 (Homo sapiens, UniProt P40145). Kind of assay: Adenylyl cyclase cAMP accumulation assay, HEK-ACA3/6 cells overexpressing human AC8. Format: cell-based. Further details: expressed in transfected cells; host or cells: HEK-ACA3/6 cells (so in the source) overexpressing human AC8. The following applies: Table 2; for IC50: 3 μM A23187 + 0.5 mM IBMX, HTRF cAMP, read-out: AC8 IC50 (μM) ± SEM; for inhibition at up to 30 µM: percent inhibition at the highest concentration (dilution starting at 30 μM), read-out: Max AC8 % inhibition. The protocol:
Cryopreserved HEK-ACA3/6 cells overexpressing human AC1, AC2, AC5, or AC8 were transferred to a 15 mL Falcon tube and gently resuspended in prewarmed Opti-MEM.50 The cells were centrifuged for 5 min at 150 g, the supernatant was discarded, and the cell pellet was resuspended in 10 mL for a second centrifugation step. Then, the cells were counted, plated in a white opaque 384-well plate, and incubated for 1 h in a 37° C. incubator supplemented with 5% CO2. The hit compounds' working solutions were prepared in prewarmed Opti-MEM, and successive serial dilutions were prepared using a Precision 2000 automated pipetting system. Dose*-response curves were generated for each hit compound using a threefold serial dilution starting at 30 μM concentration (at least 6-points per curve). Compounds were added to the assay plates and incubated for 30 min at room temperature. AC activity was selectively stimulated on each AC isoform with 3 μM A23187 (AC1 and AC8), 100 nM PMA (AC2), or a low concentration (1 μM) of the AC activator, forskolin (AC5). All stimulants of AC activity were added in combination with IBMX at a final concentration of 0.5 mM. After 1 h incubation with the stimulant at room temperature, cAMP accumulation was detected using the fluorescence-based Cisbio HTRF cAMP detection kit. […] Percent inhibition at the highest concentration was used to determine max % inhibition (Max AC8% Inhibition).
The Max AC8 inhibition is a description of the maximum efficacy of molecules against AC8.

Sequence of AC1 (Q08828 whole entry): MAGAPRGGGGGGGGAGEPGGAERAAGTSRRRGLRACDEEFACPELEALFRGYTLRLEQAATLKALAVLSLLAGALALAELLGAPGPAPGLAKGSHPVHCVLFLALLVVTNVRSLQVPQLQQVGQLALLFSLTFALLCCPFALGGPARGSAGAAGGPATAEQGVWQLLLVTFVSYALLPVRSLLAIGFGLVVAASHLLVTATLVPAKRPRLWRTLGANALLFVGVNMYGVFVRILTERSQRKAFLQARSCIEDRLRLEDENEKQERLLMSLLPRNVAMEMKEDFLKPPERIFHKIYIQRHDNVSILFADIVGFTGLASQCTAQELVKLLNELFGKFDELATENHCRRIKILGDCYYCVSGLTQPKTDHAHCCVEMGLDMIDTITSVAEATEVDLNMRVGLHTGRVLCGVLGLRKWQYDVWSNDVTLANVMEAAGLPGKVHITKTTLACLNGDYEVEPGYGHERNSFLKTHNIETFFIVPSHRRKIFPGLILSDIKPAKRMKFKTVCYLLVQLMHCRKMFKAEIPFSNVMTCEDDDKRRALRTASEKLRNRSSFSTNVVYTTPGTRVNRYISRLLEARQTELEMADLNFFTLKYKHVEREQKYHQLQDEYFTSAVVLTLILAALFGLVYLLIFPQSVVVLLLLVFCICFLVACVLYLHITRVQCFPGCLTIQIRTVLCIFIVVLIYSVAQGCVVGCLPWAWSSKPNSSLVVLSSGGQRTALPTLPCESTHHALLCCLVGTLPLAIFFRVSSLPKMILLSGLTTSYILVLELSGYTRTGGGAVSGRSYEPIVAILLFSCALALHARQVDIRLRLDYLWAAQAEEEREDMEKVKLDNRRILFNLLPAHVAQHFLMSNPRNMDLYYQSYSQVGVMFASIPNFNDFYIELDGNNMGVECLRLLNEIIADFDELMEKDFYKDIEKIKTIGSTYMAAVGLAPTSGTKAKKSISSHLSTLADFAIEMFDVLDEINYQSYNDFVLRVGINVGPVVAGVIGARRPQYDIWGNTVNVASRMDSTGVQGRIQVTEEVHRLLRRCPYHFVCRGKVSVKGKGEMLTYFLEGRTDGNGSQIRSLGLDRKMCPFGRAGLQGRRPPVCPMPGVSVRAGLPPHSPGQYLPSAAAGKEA
Sequence of AC8 (P40145 whole entry): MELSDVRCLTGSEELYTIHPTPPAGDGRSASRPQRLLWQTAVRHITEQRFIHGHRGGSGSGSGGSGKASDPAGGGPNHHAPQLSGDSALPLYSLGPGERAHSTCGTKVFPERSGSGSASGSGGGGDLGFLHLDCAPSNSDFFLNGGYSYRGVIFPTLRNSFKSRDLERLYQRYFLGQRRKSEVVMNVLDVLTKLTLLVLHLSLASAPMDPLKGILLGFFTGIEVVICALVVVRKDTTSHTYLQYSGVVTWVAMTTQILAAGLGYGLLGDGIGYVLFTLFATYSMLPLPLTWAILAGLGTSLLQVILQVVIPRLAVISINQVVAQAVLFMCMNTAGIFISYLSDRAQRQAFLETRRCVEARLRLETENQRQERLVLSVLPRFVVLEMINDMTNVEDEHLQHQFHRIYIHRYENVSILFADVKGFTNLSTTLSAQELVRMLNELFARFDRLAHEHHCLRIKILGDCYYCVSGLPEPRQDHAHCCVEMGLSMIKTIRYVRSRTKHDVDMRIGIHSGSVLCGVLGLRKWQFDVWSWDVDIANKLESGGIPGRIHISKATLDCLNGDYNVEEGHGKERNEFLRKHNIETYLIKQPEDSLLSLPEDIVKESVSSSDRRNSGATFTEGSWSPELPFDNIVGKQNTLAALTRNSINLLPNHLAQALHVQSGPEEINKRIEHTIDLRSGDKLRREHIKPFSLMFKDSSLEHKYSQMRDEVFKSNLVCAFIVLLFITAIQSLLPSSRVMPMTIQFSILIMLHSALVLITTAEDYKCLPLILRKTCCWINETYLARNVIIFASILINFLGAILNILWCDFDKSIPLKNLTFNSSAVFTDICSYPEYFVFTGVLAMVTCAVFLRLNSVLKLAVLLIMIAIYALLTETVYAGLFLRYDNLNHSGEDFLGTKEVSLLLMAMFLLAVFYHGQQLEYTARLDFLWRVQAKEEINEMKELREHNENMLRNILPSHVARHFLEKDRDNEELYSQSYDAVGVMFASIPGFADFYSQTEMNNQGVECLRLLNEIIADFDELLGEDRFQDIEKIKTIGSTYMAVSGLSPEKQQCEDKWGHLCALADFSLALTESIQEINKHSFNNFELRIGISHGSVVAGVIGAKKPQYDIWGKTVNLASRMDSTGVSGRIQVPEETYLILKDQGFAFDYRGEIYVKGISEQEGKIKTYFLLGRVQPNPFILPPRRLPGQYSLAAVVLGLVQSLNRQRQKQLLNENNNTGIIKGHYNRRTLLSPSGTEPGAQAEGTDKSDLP

On to `CCc1cc(=O)[nH]c(-n2nc(C)cc2NCc2cccs2)n1` [AC10140A], for which the IC50 at AC1 is 0.39 ± 0.02 µM; at AC8 it was greater than 60 µM. For the same compound, on AC8, the inhibition at up to 30 µM came out at 4%.
As for `Cc1cccc(CNc2cc(C)nn2-c2nc(C)cc(=O)[nH]2)c1` [AC10114A], the IC50 at AC1 is 0.63 ± 0.22 µM; at AC8, greater than 60 µM. Besides, the inhibition at up to 30 µM at AC8 worked out at 33%.
Turning to `Cc1cccc(CNc2cc(C)nn2-c2nccc(=O)[nH]2)c1` [AC10116A], at AC1, the IC50 came out at 2.63 ± 0.51 µM. Moreover, at AC8, the IC50 amounted to 8.23 ± 4.05 µM and the inhibition at up to 30 µM came to 83%.
Turning to `Cc1cc(=O)[nH]c(-n2nc(C)cc2NCc2ccc(Cl)cc2)n1` [AC10111A], the IC50 on AC1 stood at 0.36 ± 0.12 µM. On AC8, the IC50 is 31.8 ± 19.3 µM and the inhibition at up to 30 µM stood at 35%.
Take `Cc1cccc(CNc2cc(C)nn2-c2nc3c(c(=O)[nH]2)CCC3)c1` [AC10115A]: the figures for the half-inhibitory concentration (IC50) on AC1 and at AC8 were 0.75 ± 0.39 µM and 10.8 ± 4.61 µM, respectively. Moreover, on AC8, the inhibition at up to 30 µM was 82%.
Consider `Cc1cc(NCc2ccc(Cl)cc2)n(-c2nc3c(c(=O)[nH]2)CCC3)n1` [AC10110A], for which the values for the IC50 at AC1 and at AC8 were 7.49 ± 2.9 µM and 58.9 ± 36.1 µM, respectively. In addition, the inhibition at up to 30 µM on AC8 turned out to be 48%.
For `CCc1cc(=O)[nH]c(-n2nc(-c3ccccc3)cc2NCc2ccc(OC)cc2)n1` [AC10112A], on AC1, the IC50 amounted to 0.86 ± 0.07 µM. At AC8, the IC50 is 45.3 ± 14.1 µM and the inhibition at up to 30 µM came to 37%.
Take `CCc1cc(=O)[nH]c(-n2nc(C)cc2NCc2ccco2)n1` [AC10139A]: at AC1, the IC50 is 1.07 ± 0.07 µM. In addition, on AC8, the IC50 was greater than 60 µM and the inhibition at up to 30 µM worked out at 23%.
Taken in the same sequence, the figures for `CCc1cc(=O)[nH]c(-n2nc(C)cc2NCc2ccc(C(=O)c3ccccc3)cc2)n1` [AC10144A] were 0.26 ± 0.03 µM, 2.01 ± 0.09 µM and 84%.
Take `Cc1cc(NCc2ccc(Cl)cc2)n(-c2ccccc2)n1` [AC10113A]: the IC50 was 15.5 ± 8.63 µM on AC1 and greater than 60 µM at AC8. Also, the inhibition at up to 30 µM at AC8 was 19%.
